Source: US12187728B2 (Raze Therapeutics, Inc., priority 2015, dated 2025)

target: T1, Human MTHFD2 (Homo sapiens, UniProt P13995); test: MTHFD2 Activity Assay (dehydrogenase activity, diaphorase/resazurin coupled fluorescence); format: biochemical; conditions: inhibitory activity (IC50 and/or binding constant); 0.2 nM MTHFD2, 11 concentrations
T1 construct: residues 36-350 in Uniport ID P13995; His6 (N); made in house; host or cells: E. coli
T1 sequence (P13995 36-350): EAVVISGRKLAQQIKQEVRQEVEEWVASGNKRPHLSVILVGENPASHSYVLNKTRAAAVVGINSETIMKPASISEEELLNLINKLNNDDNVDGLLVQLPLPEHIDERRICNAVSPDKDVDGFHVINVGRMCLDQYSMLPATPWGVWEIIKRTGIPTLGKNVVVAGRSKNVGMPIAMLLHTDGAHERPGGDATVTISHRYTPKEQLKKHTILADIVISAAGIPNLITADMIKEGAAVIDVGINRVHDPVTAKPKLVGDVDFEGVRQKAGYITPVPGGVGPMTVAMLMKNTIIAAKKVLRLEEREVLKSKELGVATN
Summary of the method: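 His6-tagged MTHFD2 (res. 36-350), E. coli-expressed, at 0.2 nM preincubated with compound 15 min in Hepes pH 8.0/MgCl2/KH2PO4 buffer; 70 μM CH2-THF, 1 mM NAD+ added with resazurin/diaphorase, 30 min, EDTA stop. Resorufin fluorescence (ex 525/em 598); IC50 from 11-point 4-parameter fit.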

Compound | IC50
Cn1c(NC2CCCCC2)nc2c1c(=O)n(Cc1ccc(Cl)c(Cl)c1)c(=O)n2C [Example 59, 8-(cyclohexylamino)-1-[(3,4-dichlorophenyl)methyl]-3,7-dimethyl-2,3,6,7-tetrahydro-1H-purine-2,6-dione] | 1 to 5 µM
Cn1c(N[C@@H]2CCNC2)nc2c1c(=O)n(Cc1ccc(Cl)c(Cl)c1)c(=O)n2C [Example 60, 1-[(3,4-dichlorophenyl)methyl]-3,7-dimethyl-8-{[(3R)-pyrrolidin-3-yl]amino}-2,3,6,7-tetrahydro-1H-purine-2,6-dione] | 1 to 5 µM
Cn1c(N[C@H]2CCNC2)nc2c1c(=O)n(Cc1ccc(Cl)c(Cl)c1)c(=O)n2C [Example 61, 1-[(3,4-dichlorophenyl)methyl]-3,7-dimethyl-8-{[(3S)-pyrrolidin-3-yl]amino}-2,3,6,7-tetrahydro-1H-purine-2,6-dione] | 1 to 5 µM
Cn1c(NCCCO)nc2c1c(=O)n(-c1ccc(Cl)c(Cl)c1)c(=O)n2C [Example 62, 1-(3,4-dichlorophenyl)-8-[(3-hydroxypropyl)amino]-3,7-dimethyl-2,3,6,7-tetrahydro-1H-purine-2,6-dione] | > 10 µM
Cn1c(N[C@@H]2CCOC2)nc2c1c(=O)n(Cc1ccc(Cl)c(Cl)c1)c(=O)n2C [Example 63, 1-[(3,4-dichlorophenyl)methyl]-3,7-dimethyl-8-{[(3R)-oxolan-3-yl]amino}-2,3,6,7-tetrahydro-1H-purine-2,6-dione] | 0.01 to 1 µM
Cn1c(N[C@H]2CC[C@@H](C(=O)O)C2)nc2c1c(=O)n(Cc1ccc(Cl)c(Cl)c1)c(=O)n2C [Example 64, (1R,3S)-3-(1-(3,4-dichlorobenzyl)-3,7-dimethyl-2,6-dioxo-2,3,6,7-tetrahydro-1H-purin-8-ylamino)cyclopentanecarboxylic acid] | 0.01 to 1 µM
Cn1c(NC2CNC2)nc2c1c(=O)n(Cc1ccc(Cl)c(Cl)c1)c(=O)n2C [Example 65, 8-[(azetidin-3-yl)amino]-1-[(3,4-dichlorophenyl)methyl]-3,7-dimethyl-2,3,6,7-tetrahydro-1H-purine-2,6-dione] | 1 to 5 µM
Cn1c(N[C@H]2C[C@@H](O)C2)nc2c1c(=O)n(Cc1ccc(Cl)c(Cl)c1)c(=O)n2C [Example 66, 1-[(3,4-dichlorophenyl)methyl]-3,7-dimethyl-8-{[(cis)-3-hydroxycyclobutyl]amino}-2,3,6,7-tetrahydro-1H-purine-2,6-dione] | 0.01 to 1 µM
Cn1c(NCCCO)nc2c1c(=O)n(Cc1ccc(Cl)c(C(F)(F)F)c1)c(=O)n2C [Example 67, 1-{[4-chloro-3-(trifluoromethyl)phenyl]methyl}-8-[(3-hydroxypropyl)amino]-3,7-dimethyl-2,3,6,7-tetrahydro-1H-purine-2,6-dione] | 0.01 to 1 µM
Cn1c(N[C@H]2CCCNC2)nc2c1c(=O)n(Cc1ccc(Cl)c(Cl)c1)c(=O)n2C [Example 68, 1-[(3,4-dichlorophenyl)methyl]-3,7-dimethyl-8-{[(3S)-piperidin-3-yl]amino}-2,3,6,7-tetrahydro-1H-purine-2,6-dione] | 1 to 5 µM
Cn1c(N[C@@H]2CCCNC2)nc2c1c(=O)n(Cc1ccc(Cl)c(Cl)c1)c(=O)n2C [Example 69, 1-[(3,4-dichlorophenyl)methyl]-3,7-dimethyl-8-{[(3R)-piperidin-3-yl]amino}-2,3,6,7-tetrahydro-1H-purine-2,6-dione] | 0.01 to 1 µM
CC(c1ccc(Cl)c(Cl)c1)n1c(=O)c2c(nc(NCCCO)n2C)n(C)c1=O (stereo not shown) [Example 72, 1-[1-(3,4-dichlorophenyl)ethyl]-8-[(3-hydroxypropyl)amino]-3,7-dimethyl-2,3,6,7-tetrahydro-1H-purine-2,6-dione] | > 10 µM
Cn1c(NCCCO)nc2c1c(=O)n(Cc1ccc(C(F)(F)F)c(Cl)c1)c(=O)n2C [Example 73, 1-{[3-chloro-4-(trifluoromethyl)phenyl]methyl}-8-[(3-hydroxypropyl)amino]-3,7-dimethyl-2,3,6,7-tetrahydro-1H-purine-2,6-dione] | 1 to 5 µM
Cn1c(N[C@@H]2CC[C@H](C(=O)O)C2)nc2c1c(=O)n(Cc1ccc(C(F)(F)F)cc1)c(=O)n2C [Example 77, (1S,3R)-3-[(3,7-dimethyl-2,6-dioxo-1-{[4-(trifluoromethyl)phenyl]methyl}-2,3,6,7-tetrahydro-1H-purin-8-yl)amino]cyclopentane-1-carboxylic acid] | 1 to 5 µM
Cn1c(NC2CCCC(N)C2)nc2c1c(=O)n(Cc1ccc(Cl)c(Cl)c1)c(=O)n2C (stereo not shown) [Example 85, 8-((3-aminocyclohexyl)amino)-1-(3,4-dichlorobenzyl)-3,7-dimethyl-3,7-dihydro-1H-purine-2,6-dione] | 1 to 5 µM
Cn1c(NC2CCNC2=O)nc2c1c(=O)n(Cc1ccc(Cl)c(Cl)c1)c(=O)n2C (stereo not shown) [Example 86, 1-[(3,4-dichlorophenyl)methyl]-3,7-dimethyl-8-[(2-oxopyrrolidin-3-yl)amino]-2,3,6,7-tetrahydro-1H-purine-2,6-dione] | 0.01 to 1 µM

Compound | IC50
Cn1c(N[C@H]2CC[C@@H](C(=O)O)C2)nc2c1c(=O)n(Cc1ccc3sccc3c1)c(=O)n2C [Example 87, (1R,3S)-3-{[1-(1-benzothiophen-5-ylmethyl)-3,7-dimethyl-2,6-dioxo-2,3,6,7-tetrahydro-1H-purin-8-yl]amino}cyclopentane-1-carboxylic acid] | 0.01 to 1 µM
Cn1c(=O)n(Cc2ccc(Cl)c(Cl)c2)c(=O)c2[nH]c(NCCCO)nc21 [Example 90, 1-[(3,4-dichlorophenyl)methyl]-8-[(3-hydroxypropyl)amino]-3-methyl-2,3,6,7-tetrahydro-1H-purine-2,6-dione] | 1 to 5 µM
Cn1c(N[C@H]2CCC[C@@H]2O)nc2c1c(=O)n(Cc1ccc(Cl)c(Cl)c1)c(=O)n2C [Example 92, 1-[(3,4-dichlorophenyl)methyl]-8-{[(1S,2S)-2-hydroxycyclopentyl]amino}-3,7-dimethyl-2,3,6,7-tetrahydro-1H-purine-2,6-dione] | 0.01 to 1 µM
Cn1c(N[C@@H]2CCC[C@H]2O)nc2c1c(=O)n(Cc1ccc(Cl)c(Cl)c1)c(=O)n2C [Example 93, 1-[(3,4-dichlorophenyl)methyl]-8-{[(1R,2R)-2-hydroxycyclopentyl]amino}-3,7-dimethyl-2,3,6,7-tetrahydro-1H-purine-2,6-dione] | 0.01 to 1 µM
Cn1c(N[C@H]2CCC[C@H]2O)nc2c1c(=O)n(Cc1ccc(Cl)c(Cl)c1)c(=O)n2C [Example 94, 1-[(3,4-dichlorophenyl)methyl]-8-{[(1S,2R)-2-hydroxycyclopentyl]amino}-3,7-dimethyl-2,3,6,7-tetrahydro-1H-purine-2,6-dione] | 0.01 to 1 µM
COc1cc(Cn2c(=O)c3c(nc(NCCCO)n3C)n(C)c2=O)ccc1Cl [Example 96, 1-[(4-chloro-3-methoxyphenyl)methyl]-8-[(3-hydroxypropyl)amino]-3,7-dimethyl-2,3,6,7-tetrahydro-1H-purine-2,6-dione] | 1 to 5 µM
Cn1c(NCCCO)nc2[nH]c(=O)n(Cc3ccc(Cl)c(Cl)c3)c(=O)c21 [Example 97, 1-[(3,4-dichlorophenyl)methyl]-8-[(3-hydroxypropyl)amino]-7-methyl-2,3,6,7-tetrahydro-1H-purine-2,6-dione] | 1 to 5 µM
CCOC(=O)Cn1c(=O)n(Cc2ccc(Cl)c(Cl)c2)c(=O)c2c1nc(NCCCO)n2C [Example 98, Ethyl 2-(1-(3,4-dichlorobenzyl)-8-((3-hydroxypropyl)amino)-7-methyl-2,6-dioxo-1,2,6,7-tetrahydro-3H-purin-3-yl)acetate] | 5 to 10 µM
Cn1c(N[C@H]2CC[C@@H](O)C2)nc2c1c(=O)n(Cc1nc3ccccc3[nH]1)c(=O)n2C [Example 99, 1-((1H-benzo[d]imidazol-2-yl)methyl)-8-((1S,3R)-3-hydroxycyclopentylamino)-3,7-dimethyl-1H-purine-2,6(3H,7H)-dione] | 1 to 5 µM
Cn1c(CO)nc2c1c(=O)n(Cc1ccc(Cl)c(Cl)c1)c(=O)n2C [Example 100, 1-(3,4-dichlorobenzyl)-8-(hydroxymethyl)-3,7-dimethyl-1H-purine-2,6(3H,7H)-dione] | 1 to 5 µM
Cn1c(CC(=O)O)nc2c1c(=O)n(Cc1ccc(Cl)c(Cl)c1)c(=O)n2C [Example 101, 2-(1-(3,4-dichlorobenzyl)-3,7-dimethyl-2,6-dioxo-2,3,6,7-tetrahydro-1H-purin-8-yl)acetic acid] | 5 to 10 µM
Cn1c(NCCS(N)(=O)=O)nc2c1c(=O)n(Cc1ccc(Cl)c(Cl)c1)c(=O)n2C [Example 102, 2-(1-(3,4-dichlorobenzyl)-3,7-dimethyl-2,6-dioxo-2,3,6,7-tetrahydro-1H-purin-8-ylamino)ethanesulfonamide] | 5 to 10 µM
COc1cc(Cn2c(=O)c3c(nc(N[C@@H]4CCC[C@H]4O)n3C)n(C)c2=O)ccc1Cl [Example 103, 1-[(4-chloro-3-methoxyphenyl)methyl]-8-{[(1R,2R)-2-hydroxycyclopentyl]amino}-3,7-dimethyl-2,3,6,7-tetrahydro-1H-purine-2,6-dione] | 1 to 5 µM
Cn1c(NC[C@@H]2CCCO2)nc2c1c(=O)n(Cc1ccc(Cl)c(Cl)c1)c(=O)n2C [Example 104, (S)-1-(3,4-dichlorobenzyl)-3,7-dimethyl-8-((tetrahydrofuran-2-yl)methylamino)-1H-purine-2,6(3H,7H)-dione] | 1 to 5 µM
Cn1c(NC[C@@H]2CCCO2)nc2c1c(=O)n(Cc1ccc(C(F)(F)F)cc1)c(=O)n2C [Example 105, (S)-3,7-dimethyl-8-((tetrahydrofuran-2-yl)methylamino)-1-(4-(trifluoromethyl)benzyl)-1H-purine-2,6(3H,7H)-dione] | > 10 µM
